ChEMBL document CHEMBL1146459, “Production of biologically active taxoids by a callus culture of Taxus cuspidata” (2004)

Test: Growth inhibition of human MKN1 cells after 48 hrs by SRB assay
Assay type: functional
Conditions: MKN-1, 48 h

| Structure (SMILES) | GI50 (read-out: GI50) [µM] | CC50 (read-out: LC50 (the source's name)) [µM] | TGI (read-out: TGI) [µM] | GI50 (read-out: pGI50 (converted)) [µM] | TGI (read-out: pTGI (converted)) [µM] |
| --- | --- | --- | --- | --- | --- |
| C=C1[C@@H](OC(C)=O)CC[C@@]2(C)C[C@H](OC(C)=O)C3=C(C)C[C@H](OC(=O)C(C)CC)[C@@H]([C@@H](OC(C)=O)[C@H]12)C3(C)C (some centres undefined) | 49 | > 100 | > 100 | 49 | 100 |
| C=C1[C@@H](OC(C)=O)CC[C@]2(C)[C@@H]1C[C@@H]1C[C@H](OC(C)=O)C(C)=C([C@@H](O)[C@@H]2OC(=O)/C=C/c2ccccc2)C1(C)C | 93 |  | 100 | 93.3 | 100 |
